Data reported in patent publication US8476264B2, “N-(3-(2-amino-6,6-difluoro-4,4A,5,6,7,7A-hexahydro-cyclopenta[E][1,3]oxazin-4-yl)-phenylamides as BACE1 inhibitors” (Hoffmann-La Roche Inc., priority 2011, dated 2013).

Key:
hERG channel = target: T1, hERG channel (Homo sapiens, UniProt Q12809); assay: PatchXpress hERG inhibition assay; assay type: cell-based; conditions: @ 1 μM; CHO cells transfected with hERG, automated patch clamp
T1 construct: expressed in transfected cells; host or cells: CHO cells
T1 sequence (Q12809 whole entry): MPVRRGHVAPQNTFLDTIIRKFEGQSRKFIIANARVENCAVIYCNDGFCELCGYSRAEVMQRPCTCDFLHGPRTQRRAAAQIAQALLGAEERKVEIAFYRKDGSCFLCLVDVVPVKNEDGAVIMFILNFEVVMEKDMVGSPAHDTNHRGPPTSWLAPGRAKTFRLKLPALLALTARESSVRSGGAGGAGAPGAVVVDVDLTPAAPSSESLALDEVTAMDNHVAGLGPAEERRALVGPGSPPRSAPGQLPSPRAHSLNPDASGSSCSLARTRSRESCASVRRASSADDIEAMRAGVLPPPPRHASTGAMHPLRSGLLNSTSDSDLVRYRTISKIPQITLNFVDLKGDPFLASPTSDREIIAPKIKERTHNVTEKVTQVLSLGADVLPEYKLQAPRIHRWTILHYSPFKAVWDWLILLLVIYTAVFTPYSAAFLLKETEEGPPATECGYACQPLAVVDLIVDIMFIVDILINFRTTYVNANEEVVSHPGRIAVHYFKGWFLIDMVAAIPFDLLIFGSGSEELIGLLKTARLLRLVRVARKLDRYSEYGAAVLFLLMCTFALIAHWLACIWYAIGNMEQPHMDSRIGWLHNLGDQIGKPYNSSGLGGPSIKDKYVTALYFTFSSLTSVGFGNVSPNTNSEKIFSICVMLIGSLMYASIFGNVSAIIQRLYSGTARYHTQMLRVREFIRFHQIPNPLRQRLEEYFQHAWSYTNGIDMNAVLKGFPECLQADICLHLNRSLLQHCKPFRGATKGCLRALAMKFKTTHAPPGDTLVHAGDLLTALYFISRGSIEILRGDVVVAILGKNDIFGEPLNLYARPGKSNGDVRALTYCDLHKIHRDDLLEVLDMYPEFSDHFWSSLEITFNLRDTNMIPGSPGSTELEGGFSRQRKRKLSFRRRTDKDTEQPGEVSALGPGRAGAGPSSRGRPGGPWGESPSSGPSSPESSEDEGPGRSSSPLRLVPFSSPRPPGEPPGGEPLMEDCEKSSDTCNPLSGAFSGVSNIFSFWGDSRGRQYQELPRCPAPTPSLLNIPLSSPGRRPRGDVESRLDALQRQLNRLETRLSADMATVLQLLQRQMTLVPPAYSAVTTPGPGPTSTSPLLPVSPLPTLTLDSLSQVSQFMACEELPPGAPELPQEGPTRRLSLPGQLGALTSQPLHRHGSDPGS
Procedure: PatchXpress hERG Inhibition Assay
The detailed method to quantify hERG channel inhibition by the automated patch clamp system PatchXpress® 7000A (Molecular Devices, Sunnyvale, Calif.) has been described by Guo et al. (J of Pharmacol & Tox Methods, (2005) 52(1):123-35). In brief, Chinese hamster ovary (CHO) cells transfected with the human ether-a-go-go-related gene (hERG) was cultured in Ex-cell 302 media supplemented with 10% fetal bovine serum, 2 mM glutamine and 0.25 mg/ml geneticin and maintained in a CO2 incubator at 37° C. For patch clamp electrophysiology, the external buffer contained (in mM): 150 NaCl, 10 Hepes, 4 KCl, 1.2 CaCl2, 1 MgCl2, pH 7.4 adjusted with […] and the internal recording solution contained (in mM): 140 KCl, 6 EGTA, 5 Hepes, MgCl2, 5 ATP-Na2, pH 7.2 adjusted with KOH. Once the cell was loaded in the recording chamber and formed a giga ohm seal with the planar glass electrodes (Sealchip™), a whole-cell configuration was achieved by rupturing the cell membrane. The membrane potential was then clamped at −80 mV and the hERG channel activated by a 1-second depolarizing pulse delivered at 0.1 Hz, the hERG current was measured during the 500 ms-repolarizing pulse to −40 mV. After an acceptable hERG current recording was obtained, the cell was first exposed to 0.3% DMSO as the vehicle control, followed by the test article in three ascending, full-log interval concentrations and finally E-4031 at 1 μM (as the positive control) to block the hERG current completely. […] The inhibition of hERG current at each concentration was normalized to that recorded in the vehicle control, and fitted with Hill equation to calculate IC20 and/or IC50.

[1] = target: T2, recombinant human cathepsin E (Homo sapiens, UniProt P14091); assay: Cathepsin E fluorescent substrate kinetic assay; assay type: biochemical; conditions: pH 4.5, substrate MR121-[…]
T2 construct: purchased R&D Systems
T2 sequence (P14091 54-396): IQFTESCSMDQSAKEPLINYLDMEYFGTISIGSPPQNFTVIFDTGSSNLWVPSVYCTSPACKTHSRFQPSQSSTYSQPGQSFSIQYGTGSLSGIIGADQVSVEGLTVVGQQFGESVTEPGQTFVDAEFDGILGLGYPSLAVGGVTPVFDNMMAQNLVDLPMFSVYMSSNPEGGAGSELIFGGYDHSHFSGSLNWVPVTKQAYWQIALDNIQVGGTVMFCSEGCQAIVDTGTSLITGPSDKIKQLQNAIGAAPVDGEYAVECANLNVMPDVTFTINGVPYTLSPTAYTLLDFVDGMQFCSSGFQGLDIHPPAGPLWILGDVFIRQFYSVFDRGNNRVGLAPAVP
Source text: (§1) Cathepsin D and Cathepsin E Fluorescent Substrate Kinetic Assays
(§2) The MR121 fluorescence assays described below are based on the fact that MR121 forms a non-fluorescent ground state complex with tryptophan. In solution this formation occurs at millimolar concentrations of tryptophan. The mechanism can be used to design a generic biochemical assay for proteases. A substrate peptide is labeled at the N-terminus with tryptophan and at the C-terminus with the fluorophore MR121 (for cathepsin D the 10 amino acid peptide […]-MR121 was used; for cathepsin E, MR121-[…] was used). In absence of protease activity, the substrates remain intact and the MR121 fluorescence is reduced by the high local Trp-concentration. If the substrates are cleaved by the enzymes the MR121 fluorescence is recovered.
(§3) The fluorescent substrate cathepsin D and cathepsin E kinetic assays were performed at room temperature in 384-well microtiter plates (black with clear flat bottom, non binding surface plates from Corning) in a final volume of 51 μl. The test compounds were serially diluted in DMSO (15 concentrations, ⅓ dilution steps) and 1 μl of diluted compounds were mixed for 10 min with 40 μl of cathepsin D (from human liver, Calbiochem) diluted in assay buffer (100 mM sodium acetate, 0.05% BSA, pH 5.5; final concentration: 200 nM) or with 40 μl of recombinant human cathepsin E (R&D Systems) diluted in assay buffer (100 mM sodium acetate, 0.05% BSA, pH 4.5; final concentration: 0.01 nM). After addition of 10 μl of the cathepsin D substrate […]-MR121 diluted in cathepsin D assay buffer (final concentration: 300 nM) or […] cathepsin E substrate MR121-[…] diluted in cathepsin E assay buffer (final concentration: 300 nM), the plates were strongly shaken for 2 minutes. The enzymatic reaction was followed in a plate: vision reader (Perkin Elmer) (excitation wavelength: 630 nm; emission: 695 nm) for at least 30 minutes in a kinetic measurement detecting an increase of MR121 fluorescence during the reaction time. The slope in the linear range of the kinetic was calculated and the IC50 of the test compounds were determined using a four parameter equation for curve fitting.

CYP2D6 = target: T3, CYP2D6 (Homo sapiens, UniProt P10635); assay: CYP inhibition assay, CYP2D6; assay type: in vitro ADME; conditions: human liver microsomes, dextromethorphan O-demethylase; read-out: CYP IC50 2D6
T3 construct: 0.2 mg/ml pooled human liver microsomes; from tissue; host or cells: pooled human liver microsomes
T3 sequence (P10635 whole entry): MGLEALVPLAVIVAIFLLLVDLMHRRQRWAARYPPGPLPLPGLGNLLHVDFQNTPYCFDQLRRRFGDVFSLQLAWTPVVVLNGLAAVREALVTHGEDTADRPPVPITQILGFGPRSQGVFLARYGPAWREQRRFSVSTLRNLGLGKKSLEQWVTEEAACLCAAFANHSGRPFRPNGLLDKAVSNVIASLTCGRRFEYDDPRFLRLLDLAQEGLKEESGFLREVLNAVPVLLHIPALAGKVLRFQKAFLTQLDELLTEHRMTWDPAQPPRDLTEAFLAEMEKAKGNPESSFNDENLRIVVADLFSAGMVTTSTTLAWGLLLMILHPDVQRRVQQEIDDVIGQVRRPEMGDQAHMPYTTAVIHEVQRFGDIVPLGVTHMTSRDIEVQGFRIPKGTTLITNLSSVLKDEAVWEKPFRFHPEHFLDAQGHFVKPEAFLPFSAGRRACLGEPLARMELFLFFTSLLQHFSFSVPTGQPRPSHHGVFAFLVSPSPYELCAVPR
Procedure: (§4) Inhibition of cytochromes P450 (CYPs) 2C9, 2D6 and 3A4 was assessed using human liver microsomes and CYP-selective substrate metabolism reactions. 50 μl incubations were made up containing (finally) 0.2 mg/ml pooled human liver microsomes, 5 μM substrate (diclofenac for CYP2C9 [4′ hydroxylase], dextromethorphan for CYP2D6 [O-demethylase] or midazolam for CYP3A4 [1′ hydroxylase]), 0.25 μL DMSO containing test inhibitor and NADPH regenerating system. Test inhibitor concentrations of 50, 16.7, 5.6, 1.9, 0.6 and 0.2 μM were assessed in singlicate. Incubations were pre-warmed to 37° C. for 10 minutes before initiation by addition of NADPH regenerating system. Incubations were quenched after 5 minutes (20 minutes for dextromethorphan) by addition of 50 μl cold acetonitrile containing 20 ng/ml 4-OH-diclofenac-13C6, 20 ng/mL dextrorphan-D3 and 20 ng/mL 1-OH-midazolam-D4. Quenched incubates were stored at −20° C. for at least 1 hour before centrifugation (20,000×g, 20 minutes). Supernatants were removed and diluted 1:1 with water prior to analysis using a RapidFire sample injector system and API4000 mass spectrometer. Peak areas for substrate, metabolite and stable-labelled metabolite standard were determined using MS/MS. The peak area ratios between the metabolite generated by the enzymatic reaction and the internal standard were used in subsequent calculations. The percentage of (DMSO) control activity was calculated for each incubate and IC50 values estimated by non-linear regression. Sulfaphenazole, quinidine or ketoconazole were tested in each CYP2C9, CYP2D6 or CYP3A4 inhibition experiment, respectively, to ensure assay sensitivity and reproducibility. (Validated assays for human cytochrome P450 activities, R. L. Walsky and R. S. Obach, Drug Metabolism and Disposition 32: 647-660, 2004. and S. Fowler and H. Zhang, The AAPS Journal, Vol. 10, No. 2, 410-424, 2008.)

[2] = Detection of glutathione conjugates; assay type: in vitro ADME, human; set-up: key: NF: in vitro no significant adduct formation relative to control; conditions: in vitro, relative to control
Source text: Detection of Glutathione Conjugates
The assay conditions for the detection of glutathione conjugates follow the procedure described by C. M. Dieckhaus et al.

in vivo effect = conditions: % of control @ 30 mg/kg p.o.
CYP2C9 = target: T4, CYP2C9 (Homo sapiens, UniProt P11712); assay: CYP inhibition assay, CYP2C9; assay type: in vitro ADME; conditions: human liver microsomes, diclofenac 4' hydroxylase; read-out: CYP IC50 2C9
T4 construct: 0.2 mg/ml pooled human liver microsomes; from tissue; host or cells: pooled human liver microsomes
T4 sequence (P11712 whole entry): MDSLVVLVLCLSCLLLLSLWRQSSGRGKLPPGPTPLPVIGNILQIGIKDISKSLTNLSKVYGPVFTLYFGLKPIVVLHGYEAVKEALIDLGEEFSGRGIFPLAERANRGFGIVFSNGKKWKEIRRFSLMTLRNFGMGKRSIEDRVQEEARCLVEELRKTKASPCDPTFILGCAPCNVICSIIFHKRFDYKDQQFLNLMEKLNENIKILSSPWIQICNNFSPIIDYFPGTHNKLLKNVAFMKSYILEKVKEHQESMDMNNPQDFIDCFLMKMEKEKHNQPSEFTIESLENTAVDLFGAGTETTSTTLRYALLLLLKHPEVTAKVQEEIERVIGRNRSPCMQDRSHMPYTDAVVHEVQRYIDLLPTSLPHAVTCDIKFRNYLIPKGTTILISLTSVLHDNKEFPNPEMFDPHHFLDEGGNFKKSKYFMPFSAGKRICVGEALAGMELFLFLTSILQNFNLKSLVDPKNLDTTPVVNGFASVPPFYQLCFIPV
Procedure: as §4

CYP3A4 = target: T5, CYP3A4 (Homo sapiens, UniProt P08684); assay: CYP inhibition assay, CYP3A4; assay type: in vitro ADME; conditions: human liver microsomes, midazolam 1' hydroxylase; read-out: CYP IC50 3A4
T5 construct: 0.2 mg/ml pooled human liver microsomes; from tissue; host or cells: pooled human liver microsomes
T5 sequence (P08684 whole entry): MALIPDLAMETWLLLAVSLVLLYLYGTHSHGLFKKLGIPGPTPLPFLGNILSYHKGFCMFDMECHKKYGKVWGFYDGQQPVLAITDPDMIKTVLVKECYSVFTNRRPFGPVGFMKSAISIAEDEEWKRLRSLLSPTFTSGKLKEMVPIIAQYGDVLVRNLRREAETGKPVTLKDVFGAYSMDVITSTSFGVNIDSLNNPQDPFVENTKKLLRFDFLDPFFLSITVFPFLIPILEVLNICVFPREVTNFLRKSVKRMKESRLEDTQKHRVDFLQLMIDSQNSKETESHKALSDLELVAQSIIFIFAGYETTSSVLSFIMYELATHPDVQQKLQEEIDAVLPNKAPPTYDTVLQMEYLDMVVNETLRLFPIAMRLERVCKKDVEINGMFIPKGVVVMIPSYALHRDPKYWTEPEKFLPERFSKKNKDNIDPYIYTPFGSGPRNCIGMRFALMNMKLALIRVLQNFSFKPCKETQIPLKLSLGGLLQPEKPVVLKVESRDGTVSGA
Procedure: as §4

[3] = target: T6, cathepsin D (from human liver) (Homo sapiens, UniProt P07339); assay: Cathepsin D fluorescent substrate kinetic assay; assay type: biochemical; conditions: pH 5.5, substrate […]-MR121
T6 construct: cathepsin D (from human liver, Calbiochem) diluted in assay buffer; purchased Calbiochem; host or cells: purified from human liver
T6 sequence (P07339 65-162 limits assumed): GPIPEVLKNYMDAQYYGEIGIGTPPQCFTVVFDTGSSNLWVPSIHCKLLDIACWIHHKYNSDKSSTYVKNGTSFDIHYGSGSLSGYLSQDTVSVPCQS
T6 sequence (P07339 169-412 limits assumed): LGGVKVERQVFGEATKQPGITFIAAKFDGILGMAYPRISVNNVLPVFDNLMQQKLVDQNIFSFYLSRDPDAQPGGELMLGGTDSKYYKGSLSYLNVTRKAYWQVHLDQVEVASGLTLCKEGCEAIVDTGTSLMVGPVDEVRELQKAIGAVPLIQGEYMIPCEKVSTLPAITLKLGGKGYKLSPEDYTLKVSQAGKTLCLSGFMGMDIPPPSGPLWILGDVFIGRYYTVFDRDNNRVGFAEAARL
Source text: as §1, §2, §3

BACE1 = target: T7, BACE1 (Homo sapiens, UniProt P56817); assay: Cellular Aβ-lowering assay (Aβ40 ELISA); assay type: cell-based; conditions: HEK293 cells stably expressing human APP wt (APP695); Aβ40 in supernatant after 18-20 hrs; read-out: BACE1 cell act. Aβ40 IC50
T7 construct: Human HEK293 cells which are stably transfected with a vector expressing a cDNA of the human APP wt gene (APP695); endogenous in cells; host or cells: HEK293 stably transfected with human APP695 wt
T7 sequence (P56817 46-501): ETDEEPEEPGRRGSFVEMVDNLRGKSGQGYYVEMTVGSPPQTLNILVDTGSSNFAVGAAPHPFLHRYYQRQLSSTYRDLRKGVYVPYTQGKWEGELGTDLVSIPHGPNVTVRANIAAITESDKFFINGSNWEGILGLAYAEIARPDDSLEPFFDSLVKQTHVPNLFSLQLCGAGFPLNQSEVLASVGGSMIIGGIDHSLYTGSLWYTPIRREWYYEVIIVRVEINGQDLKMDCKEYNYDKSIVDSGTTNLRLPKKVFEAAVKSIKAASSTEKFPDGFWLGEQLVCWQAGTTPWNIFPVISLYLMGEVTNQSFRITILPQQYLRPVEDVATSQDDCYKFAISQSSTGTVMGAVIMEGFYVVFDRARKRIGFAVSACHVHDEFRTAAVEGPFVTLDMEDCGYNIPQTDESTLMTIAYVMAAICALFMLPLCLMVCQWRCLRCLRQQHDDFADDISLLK
Procedure: Cellular Aβ-Lowering Assay:
Human HEK293 cells which are stably transfected with a vector expressing a cDNA of the human APP wt gene (APP695) were used to assess the potency of the compounds in a cellular assay. The cells were seeded in 96-well microtiter plates in cell culture medium (Iscove, plus 10% (v/v) fetal bovine serum, glutamine, penicillin/streptomycin) to about 80% confluence and the compounds were added at a 10× concentration in 1/10 volume of medium without FCS containing 8% DMSO (final concentration of DMSO was kept at 0.8% v/v). After 18-20 hrs incubation at 37° C. and 5% CO2 in a humidified incubator the culture supernatant was harvested for the determination of Aβ40 concentrations. 96 well ELISA plates (e.g., Nunc MaxiSorb) were coated with monoclonal antibody which specifically recognize the C-terminal end of Aβ40 (Brockhaus et al., NeuroReport 9, 1481-1486; 1998). After blocking of non-specific binding sites with e.g. 1% BSA and washing, the culture supernatants were added in suitable dilutions together with a horseradish peroxidase-coupled Aβ detection antibody (e.g., antibody 4G8, Senetek, Maryland Heights, Mo.) and incubated for 5 to 7 hrs. Subsequently the wells of the microtiter plate were washed extensively with Tris-buffered saline containing 0.05% Tween 20 and the assay was developed with tetramethylbenzidine/H2O2 in citric acid buffer. After stopping the reaction with one volume 1 N H2SO4 the reaction was measured in an ELISA reader at 450 nm wavelength. The concentrations of Aβ in the culture supernatants were calculated from a standard curve obtained with known amounts of pure Aβ peptide.

IC50 [1] [µM] | IC50 (CYP2D6) [µM] | GSH human (glutathione adduct formation) [2] | IC50 (CYP2C9) [µM] | IC50 (CYP3A4) [µM] | IC50 [3] [µM] | IC50 (BACE1) [µM] | SMILES | hERG inhibition (hERG channel) | in vivo effect (in vivo effect)
101 | > 10 | NF | > 10 | > 10 | 120 | – | C[C@]1(c2cc(NC(=O)c3ccc(C#N)cn3)ccc2F)N=C(N)O[C@@H]2CC(F)(F)C[C@@H]21 [Example 2, 5-Cyano-pyridine-2-carboxylic acid [3-((4S,4aR,7aR)-2-amino-6,6-difluoro-4-methyl 4,4a,5,6,7,7a-hexahydro-cyclopenta[e][1,3]oxazin-4-yl)-4-fluoro-phenyl]-amide] | A (less than 20% inhibition @ 1 μM) | A (less than 50% of control @ 30 mg/kg p.o.)
133 | 1 to 10 | NF | > 10 | > 10 | 52 | 0.0004 | C[C@]1(c2cc(NC(=O)c3ccc(Cl)cn3)ccc2F)N=C(N)O[C@@H]2CC(F)(F)C[C@@H]21 [Example 1, 5-Chloro-pyridine-2-carboxylic acid [3-((4S,4aR,7aR)-2-amino-6,6-difluoro-4-methyl-4,4a,5,6,7,7a-hexahydro-cyclopenta[e][1,3]oxazin-4-yl)-4-fluoro-phenyl]-amide] | – | A (less than 50% of control @ 30 mg/kg p.o.)
